# Source: US10495630B2, “Methods for the determination of compounds or compositions for the treatment of lipofuscin related diseases and compounds or compositions” (KATAIRO GMBH, priority 2014, dated 2019)
# Where two headings read alike, the source gives them in different places.
# How the values were obtained:
# Abca4 (−/−) mice = assay: A2E concentration in eyes of Abca4 (−/−) mice after intravitreal injection, HPLCMSMS; format: in vivo; conditions: for response vs control in vivo at 40000 µg/mL / response vs control in vivo at 20000 µg/mL: Mus musculus, 168 h, read-out: % of A2E relative to age matched untreated
# Description: […] […] The left eye was not treated and maintained as a control. Untreated eyes of age-matched mice lacking the Abca4 transporter were an additional control.
# The concentration in each treated eye was then expressed as a percentage of the average concentration in all untreated eyes in the mice of the same age.
# The left eye was not treated and maintained as a control. Untreated eyes of age-matched mice lacking the Abca4 transporter were an additional control.
# The left eye was not treated and maintained as a control. Untreated eyes of age-matched mice lacking the Abca4 transporter were an additional control. […] Tryptophan is capable of absorbing and re-radiating light energy, as is riboflavin.
# Water solutions were diluted 1:3 with acetonitrile and then sealed in vials for injection. 6 μL of the water acetonitrile solutions were injected onto a 2×50 mm Phenyl derived HPLC column (3 μm) and eluted with a gradient from 20% acetonitrile to 100% acetonitrile over 4 minutes at a flow rate of 500 μL/minute.
# [1] = tested on: human retinal pigment epithelium (RPE) cells; assay: Degradation of lipofuscin in human RPE cells (micrographs after one week); format: cell-based; conditions: one week incubation
# Protocol: To explore the role of the reactive chemical species the human retinal pigment epithelium (RPE) cells were treated with the super oxide anion donor (SAD) soraprazan ((7R,8R,9R)-2,3-Dimethyl-8-hydroxy-7-ethoxy-9-phenyl-7,8,9,10-tetrahydro-imidazo-[1,2-h][1,7]-naphthyridin)—a member of the THPE family—either alone or in combination with a known radical oxygen scavenger, cardioxane.
# After growing the hRPE-cells to confluence, the test compounds were added to seven cell cultures and the cells were incubated at 37° C. and 5% CO2. The SAD was added to the cell cultures in a concentration of 50 μg/ml either alone or in combination with cardioxane in a concentration of 10 μM, 50 μM or 100 μM. Additionally, three cell cultures were incubated only with cardioxane in a concentration of 10 μM, 50 μM or 100 μM. As control, one cell culture was grown without test compounds.
# After one week of incubation micrographs of the differently incubated RPE cells were taken as shown in FIG. 2A to H. In the original images, lipofuscin in cells is visible as a yellow-gold-orange fluorescent structure, before a blue background. In the grey scale reproduction in FIG. 2 the yellow-gold-orange structure appear light grey (yellow) or dark grey (gold-orange) before a grey background. Areas of degradation of lipofuscin in the hRPE cells appears as bright blue to whitish structures which appear white in the in the grey scale reproduction and are circled in FIG. 2A.
# The bright blue structures are only observed in the experimental set up with SAD alone (FIG. 2A).
# melanin A2E particles = assay: Assay for binding to A2E melanin particles; set-up: species or system S. officinalis; conditions: FIG. 3A; 37° C., 4 h
# Protocol: To study the binding of A2E to melanin, a suspension of 2 mg/ml natural melanin (S. officinalis) is prepared in PBS, pH 7.4. The melanin suspension is brought to 37° C. and sonicated for 15 min to form a uniform suspension. The melanin suspension (0.75 ml) is measured in aliquots into glass test tubes (12×75 mm) under continuous shaking to avoid sedimentation. The solution of A2E (0.75 ml) is added to the above-mentioned melanin aliquots, and the tubes will be incubated in a shaker incubator at 37° C. and 300 rpm for 4 h.
# Controls are prepared by incubating A2E in the absence of melanin in incubation medium and by incubating melanin without A2E. Compounds are added to melanin suspension from stock solutions. After incubation, the suspensions are centrifuged at 13,000 rpm for 15 min at room temperature to remove the melanin granules. The supernatant is collected, diluted with acetonitrile and analyzed by an LC-MS/MS method to determine the concentration of […] in the supernatant. The kinetic parameters of binding study, i.e., maximal binding capacity (rmax) and the binding affinity (k) are determined for A2E according to the previously reported method (Cheruvu et al., 2008).
# A high percentage of soraprazan and demethoxysoraprazan—about 46% and about 53%, respectively—are found bound to the melanin A2E particles.
# [2] = chelators or metal interactors, intravitreal 2 μl of 40 mg/ml or concentration as indicated, one week after injection
# [3] = redox active small molecules and chelator, intravitreal 2 μl of 20 mg/ml, 16 hours after injection
# [4] = tetracycline antibiotics, intravitreal 2 μl of 20 mg/ml, one week after injection
# [5] = dyes and porphyrins, intravitreal 2 μl of 20 mg/ml, one week after injection
# [6] = amino acids or metabolites, intravitreal 2 μl of 40 mg/ml, one week after injection
# [7] = quinolones, intravitreal 2 μl of 20 mg/ml, one week after injection
# [8] = permeability agents, intravitreal 2 μl of 40 mg/ml or concentration as indicated in the table, one week after injection
# [9] = redox active and chelating protein, intravitreal 2 μl of 20 mg/ml, one week after injection
compound,measurement,setting,value
"c1cnc2c(c1)ccc1cccnc12 [1,10-phenanthroline]",response vs control in vivo at 40000 µg/mL,Abca4 (−/−) mice; [2],91%
same,Concentration A2E (μM) in the treated eye,Abca4 (−/−) mice; [2],20 µM
C[C@@H]1CC[C@H]2[C@@H](C)C(=O)O[C@@H]3O[C@@]4(C)CC[C@@H]1[C@]32OO4 [Artemesinin],% of A2E relative to age matched untreated,Abca4 (−/−) mice; [3],75%
same,Concentration A2E (μM) in the treated eye,Abca4 (−/−) mice; [3],38 µM
O=C(N[C@H](CO)[C@H](O)c1ccc([N+](=O)[O-])cc1)C(Cl)Cl [Chloramphenicol],response vs control in vivo at 20000 µg/mL,Abca4 (−/−) mice; [4],70%
same,Concentration A2E (μM) in the treated eye,Abca4 (−/−) mice; [4],24 µM
CN(C)c1ccc(C(=C2C=CC(=[N+](C)C)C=C2)c2ccc(N(C)C)cc2)cc1 [Crystal violet],response vs control in vivo at 20000 µg/mL,Abca4 (−/−) mice; [5],71%
same,Concentration A2E (μM) in the treated eye,Abca4 (−/−) mice; [5],23 µM
N[C@@H](CS)C(=O)O [Cysteine],response vs control in vivo at 40000 µg/mL,Abca4 (−/−) mice; [6],59%
same,Concentration A2E (μM) in the treated eye,Abca4 (−/−) mice; [6],12 µM
same,% of A2E relative to age matched untreated,Abca4 (−/−) mice; [2],59%
same,Concentration A2E (μM) in the treated eye,Abca4 (−/−) mice; [2],12 µM
C[C@H]1c2cccc(O)c2C(=O)C2=C(O)[C@]3(O)C(=O)C(C(N)=O)=C(O)[C@@H](N(C)C)[C@@H]3[C@@H](O)[C@@H]21 [Doxycycline],response vs control in vivo at 20000 µg/mL,Abca4 (−/−) mice; [4],81%
same,Concentration A2E (μM) in the treated eye,Abca4 (−/−) mice; [4],28 µM
Cc1cc2nc3c(=O)[nH]c(=O)nc-3n(C[C@H](O)[C@H](O)[C@H](O)COP(=O)(O)OP(=O)(O)OC[C@H]3O[C@@H](n4cnc5c(N)ncnc54)[C@H](O)[C@@H]3O)c2cc1C [FAD],% of A2E relative to age matched untreated,Abca4 (−/−) mice; [5],99%
same,Concentration A2E (μM) in the treated eye,Abca4 (−/−) mice; [5],23 µM
CN1CCN(c2c(F)cc3c(=O)c(C(=O)O)cn(CCF)c3c2F)CC1 [Fleroxacin],response vs control in vivo at 20000 µg/mL,Abca4 (−/−) mice; [7],74%
same,Concentration A2E (μM) in the treated eye,Abca4 (−/−) mice; [7],24 µM
O=C1OC2(c3ccc(O)cc3Oc3cc(O)ccc32)c2ccccc21 [Fluoroscein],response vs control in vivo at 20000 µg/mL,Abca4 (−/−) mice; [5],85%
same,Concentration A2E (μM) in the treated eye,Abca4 (−/−) mice; [5],20 µM
N[C@@H](CCC(=O)N[C@@H](CS)C(=O)NCC(=O)O)C(=O)O [Glutathione],response vs control in vivo at 40000 µg/mL,Abca4 (−/−) mice; [6],89%
same,Concentration A2E (μM) in the treated eye,Abca4 (−/−) mice; [6],35 µM
O=C1/C(=C2\Nc3ccc(S(=O)(=O)[O-])cc3C2=O)Nc2ccc(S(=O)(=O)[O-])cc21.[Na+].[Na+] [Indigocarmine],% of A2E relative to age matched untreated,Abca4 (−/−) mice; [5],98%
same,Concentration A2E (μM) in the treated eye,Abca4 (−/−) mice; [5],22 µM
CC1(C)C(/C=C/C=C/C=C/C=C2\N(CCCCS(=O)(=O)O)c3ccc4ccccc4c3C2(C)C)=[N+](CCCCS(=O)(=O)[O-])c2ccc3ccccc3c21 [Indocyanine green],response vs control in vivo at 20000 µg/mL,Abca4 (−/−) mice; [5],66%
same,Concentration A2E (μM) in the treated eye,Abca4 (−/−) mice; [5],20 µM
CN(C)c1ccc(O)c2c1C[C@H]1C[C@H]3[C@H](N(C)C)C(O)=C(C(N)=O)C(=O)[C@@]3(O)C(O)=C1C2=O [Minocycline],response vs control in vivo at 20000 µg/mL,Abca4 (−/−) mice; [4],100%
same,Concentration A2E (μM) in the treated eye,Abca4 (−/−) mice; [4],33 µM
CCn1cc(C(=O)O)c(=O)c2cc(F)c(N3CCNCC3)cc21 [Norfloxacin],response vs control in vivo at 20000 µg/mL,Abca4 (−/−) mice; [7],106%
same,Concentration A2E (μM) in the treated eye,Abca4 (−/−) mice; [7],36 µM
c1ccc2c(c1)Nc1ccccc1S2 [Phenothiazine],response vs control in vivo at 20000 µg/mL,Abca4 (−/−) mice,85%
same,Concentration A2E (μM) in the treated eye,Abca4 (−/−) mice; [5],27 µM
c1ccc2c(c1)-c1nc-2nc2[nH]c(nc3nc(nc4[nH]c(n1)c1ccccc41)-c1ccccc1-3)c1ccccc21 [Phthalocyanine],% of A2E relative to age matched untreated,Abca4 (−/−) mice; [5],142%
same,Concentration A2E (μM) in the treated eye,Abca4 (−/−) mice; [5],31 µM
C=C[C@H]1C[N@@]2CC[C@H]1C[C@H]2[C@H](O)c1ccnc2ccc(OC)cc12 [Quinine],response vs control in vivo at 20000 µg/mL,Abca4 (−/−) mice; [5],81%
same,Concentration A2E (μM) in the treated eye,Abca4 (−/−) mice; [5],17 µM
Cc1cc2nc3c(=O)[nH]c(=O)nc-3n(C[C@H](O)[C@H](O)[C@H](O)CO)c2cc1C [Riboflavin],response vs control in vivo at 40000 µg/mL,Abca4 (−/−) mice; [6],91%
same,Concentration A2E (μM) in the treated eye,Abca4 (−/−) mice; [6],19 µM
O=C([O-])c1c(Cl)c(Cl)c(Cl)c(Cl)c1-c1c2cc(I)c(=O)c(I)c-2oc2c(I)c([O-])c(I)cc12.[Na+].[Na+] [Rose bengal],% of A2E relative to age matched untreated,Abca4 (−/−) mice; [5],85%
same,Concentration A2E (μM) in the treated eye,Abca4 (−/−) mice; [5],16 µM
C[C@@H]1CN(c2c(F)c(N)c3c(=O)c(C(=O)O)cn(C4CC4)c3c2F)C[C@H](C)N1 [Sparfloxacin],response vs control in vivo at 20000 µg/mL,Abca4 (−/−) mice; [7],99%
same,Concentration A2E (μM) in the treated eye,Abca4 (−/−) mice; [7],36 µM
N[C@@H](Cc1c[nH]c2ccccc12)C(=O)O [Tryptophan],response vs control in vivo at 40000 µg/mL,Abca4 (−/−) mice; [6],66%
same,Concentration A2E (μM) in the treated eye,Abca4 (−/−) mice; [6],13 µM
C[C@@H](CN1CC(=O)NC(=O)C1)N1CC(=O)NC(=O)C1 [cardioxane],Effect on the lipofuscin degradation seen with SAD,"[1]; cardioxane 10, 50 or 100 μM added to SAD 50 μg/ml",abolishes the degradation of lipofuscin
same,Degradation / removal of lipofuscin in hRPE cells,"[1]; test compound alone (SAD 50 μg/ml; cardioxane 10, 50 or 100 μM)",do not show any degradation of lipofuscin
Cyclodextrin,% of A2E relative to age matched untreated,Abca4 (−/−) mice; [8],83%
same,Concentration A2E (μM) in the treated eye,Abca4 (−/−) mice; [8],20 µM
Cytochrome C: redox active electron carrier protein used as a model peroxidase,% of A2E relative to age matched untreated,Abca4 (−/−) mice; [9],81%
same,Concentration A2E (μM) in the treated eye,Abca4 (−/−) mice; [9],18 µM
R/S-demethoxysoraprazan,Proportion of compound bound to the melanin A2E particles after incubation,melanin A2E particles,bind to the A2E melanin particles although to a lower percentage
Transferrin (apo): protein capable of binding iron with high affinity,% of A2E relative to age matched untreated,Abca4 (−/−) mice; [9],82%
same,Concentration A2E (μM) in the treated eye,Abca4 (−/−) mice; [9],15 µM
demethoxysoraprazan,Proportion of compound bound to the melanin A2E particles after incubation,melanin A2E particles,about 53%
